Consider two compounds from patent publication US3973006A, “Peptide enzyme inhibitors of angiotensin I” (E. R. Squibb & Sons, Inc., priority 1975, dated 1976).

Assay [1] addresses angiotensin-converting enzyme (Homo sapiens, UniProt P12821). The assay is described as follows: Inhibition of angiotensin-converting enzyme (conversion of angiotensin I into angiotensin II), I50 determination. It is filed as biochemical. Particulars: for IC50: 0.3 mM angiotensin I, 100 mM potassium phosphate buffer pH 7.5, 30 mM NaCl, 37°, read-out: I50 (concentration of peptide producing a 50% inhibition of angiotensin-converting enzyme) (converted). As for the experimental part:
For determination of I50 values (concentration of peptide expressed in micrograms/ml. producing a 50% inhibition of angiotensin-converting enzyme), varying concentrations of the peptide of Example 19 are added to 13 × 100 mm. assay tubes containing a final volume of 0.25 ml. containing 100 mM. potassium phosphate buffer, pH 7.5, 30 mM. NaCl, and 0.3 mM. angiotensin I. Enzymatic reactions are initiated by addition of enzyme and incubation is carried out at 37°. The concentration of the peptide of Example 19 of the present invention which inhibits conversion of 50% of angiotensin I into angiotensin II is found to be 7 μg./ml as opposed to an I50 (μg/ml) of 0.9 for the parent peptide Pyr-Trp-Pro-Arg-Pro-Gln-Ile-Pro-Pro.

For assay [2], the system named is angiotensin I induced pressor response. The assay is described as follows: Inhibition of angiotensin I induced pressor response in anesthetized rats. As to conditions: intravenous; atropinized anesthetized male rats infused with pentolinium; 0.10 μg/kg angiotensin I. It is filed as in vivo.

angiotensin-converting enzyme, sequence (P12821 30-1306, species assumed): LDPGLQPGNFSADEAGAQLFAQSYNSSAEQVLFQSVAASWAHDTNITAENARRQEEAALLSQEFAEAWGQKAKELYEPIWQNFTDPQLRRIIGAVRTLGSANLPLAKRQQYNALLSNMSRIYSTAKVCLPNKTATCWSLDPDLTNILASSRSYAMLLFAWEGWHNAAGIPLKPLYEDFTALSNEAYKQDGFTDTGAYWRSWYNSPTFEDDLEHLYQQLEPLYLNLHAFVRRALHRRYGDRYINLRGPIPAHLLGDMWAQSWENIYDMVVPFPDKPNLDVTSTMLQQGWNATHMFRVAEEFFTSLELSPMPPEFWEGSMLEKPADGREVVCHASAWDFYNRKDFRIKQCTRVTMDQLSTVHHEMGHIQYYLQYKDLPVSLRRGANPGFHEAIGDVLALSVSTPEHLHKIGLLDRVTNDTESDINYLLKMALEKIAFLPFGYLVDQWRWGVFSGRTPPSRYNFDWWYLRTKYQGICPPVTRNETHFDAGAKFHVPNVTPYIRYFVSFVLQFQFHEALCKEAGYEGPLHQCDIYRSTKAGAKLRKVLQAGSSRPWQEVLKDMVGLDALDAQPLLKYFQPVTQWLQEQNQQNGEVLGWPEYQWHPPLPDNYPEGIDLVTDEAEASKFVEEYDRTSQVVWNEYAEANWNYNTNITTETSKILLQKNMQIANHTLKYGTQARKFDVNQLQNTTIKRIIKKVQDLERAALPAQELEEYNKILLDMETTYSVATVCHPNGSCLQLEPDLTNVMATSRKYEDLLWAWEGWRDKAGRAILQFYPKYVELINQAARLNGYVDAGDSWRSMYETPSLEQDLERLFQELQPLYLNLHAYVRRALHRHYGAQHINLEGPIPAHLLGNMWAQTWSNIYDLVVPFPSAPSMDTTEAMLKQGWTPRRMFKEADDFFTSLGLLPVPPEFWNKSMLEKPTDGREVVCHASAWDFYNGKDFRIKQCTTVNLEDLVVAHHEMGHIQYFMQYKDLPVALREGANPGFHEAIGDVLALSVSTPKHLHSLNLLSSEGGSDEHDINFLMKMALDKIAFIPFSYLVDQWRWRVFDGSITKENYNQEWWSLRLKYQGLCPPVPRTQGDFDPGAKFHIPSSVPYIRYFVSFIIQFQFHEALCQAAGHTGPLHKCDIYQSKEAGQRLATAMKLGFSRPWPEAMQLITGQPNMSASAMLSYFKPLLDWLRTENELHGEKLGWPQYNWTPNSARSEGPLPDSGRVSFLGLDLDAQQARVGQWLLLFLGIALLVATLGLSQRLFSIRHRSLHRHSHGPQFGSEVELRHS

Turning to `CC[C@H](C)[C@H](NC(=O)[C@H](CCC(N)=O)NC(=O)[C@@H]1CCCN1C(=O)[C@H](CCCNC(=N)N)NC(=O)[C@@H]1CCCN1C(=O)[C@H](Cc1c[nH]c2ccccc12)NC(=O)[C@@H]1CCC(=O)N1)C(=O)N1CCC[C@H]1C(=O)N1CCC[C@H]1C(=O)OC` [Example 19, Pyroglutamyl-tryptophyl-prolyl-arginyl-prolyl-glutaminyl-isoleucyl-prolyl-proline, methyl ester], the IC50 in assay [1] is 6.28 µM. For the same compound, the “in vitro potency in inhibiting conversion of angiotensin I into angiotensin II, compared with parent control peptide” value in assay [1] (in vitro) is “substantially less potent than the parent control peptide”. Moreover, the “in vivo activity (degree of inhibition of angiotensin I induced pressor response)” value in assay [2] is reported as “roughly equivalent to that of the parent Control peptide”.
For the compound `CC[C@H](C)[C@H](NC(=O)[C@H](CCC(N)=O)NC(=O)[C@@H]1CCCN1C(=O)[C@H](CCCNC(=N)N)NC(=O)[C@@H]1CCCN1C(=O)[C@H](Cc1c[nH]c2ccccc12)NC(=O)[C@@H]1CCC(=O)N1)C(=O)N1CCC[C@H]1C(=O)N1CCC[C@H]1C(=O)O` [Pyr-Trp-Pro-Arg-Pro-Gln-Ile-Pro-Pro, Pyroglutamyl-tryptophyl-prolyl-arginyl-prolyl-glutaminyl-isoleucyl-prolyl-proline, reference compound], the IC50 in assay [1] is 0.817 µM.
